The values that follow come from patent US20070249639A1, “Use of 9H-Purine-2,6-Diamine Derivatives in the Treatment of Proliferative Diseases and Novel 9H-Purine-2,6-Diamine Derivatives” (priority 2004, published 2007).

For one test, the target named is T1, human topoisomerase II α (Homo sapiens, UniProt P11388).
T1 construct: purchased Professor Neil Osheroff (Vanderbilt University, Nashville, Tenn., USA)
T1 sequence (P11388 whole entry): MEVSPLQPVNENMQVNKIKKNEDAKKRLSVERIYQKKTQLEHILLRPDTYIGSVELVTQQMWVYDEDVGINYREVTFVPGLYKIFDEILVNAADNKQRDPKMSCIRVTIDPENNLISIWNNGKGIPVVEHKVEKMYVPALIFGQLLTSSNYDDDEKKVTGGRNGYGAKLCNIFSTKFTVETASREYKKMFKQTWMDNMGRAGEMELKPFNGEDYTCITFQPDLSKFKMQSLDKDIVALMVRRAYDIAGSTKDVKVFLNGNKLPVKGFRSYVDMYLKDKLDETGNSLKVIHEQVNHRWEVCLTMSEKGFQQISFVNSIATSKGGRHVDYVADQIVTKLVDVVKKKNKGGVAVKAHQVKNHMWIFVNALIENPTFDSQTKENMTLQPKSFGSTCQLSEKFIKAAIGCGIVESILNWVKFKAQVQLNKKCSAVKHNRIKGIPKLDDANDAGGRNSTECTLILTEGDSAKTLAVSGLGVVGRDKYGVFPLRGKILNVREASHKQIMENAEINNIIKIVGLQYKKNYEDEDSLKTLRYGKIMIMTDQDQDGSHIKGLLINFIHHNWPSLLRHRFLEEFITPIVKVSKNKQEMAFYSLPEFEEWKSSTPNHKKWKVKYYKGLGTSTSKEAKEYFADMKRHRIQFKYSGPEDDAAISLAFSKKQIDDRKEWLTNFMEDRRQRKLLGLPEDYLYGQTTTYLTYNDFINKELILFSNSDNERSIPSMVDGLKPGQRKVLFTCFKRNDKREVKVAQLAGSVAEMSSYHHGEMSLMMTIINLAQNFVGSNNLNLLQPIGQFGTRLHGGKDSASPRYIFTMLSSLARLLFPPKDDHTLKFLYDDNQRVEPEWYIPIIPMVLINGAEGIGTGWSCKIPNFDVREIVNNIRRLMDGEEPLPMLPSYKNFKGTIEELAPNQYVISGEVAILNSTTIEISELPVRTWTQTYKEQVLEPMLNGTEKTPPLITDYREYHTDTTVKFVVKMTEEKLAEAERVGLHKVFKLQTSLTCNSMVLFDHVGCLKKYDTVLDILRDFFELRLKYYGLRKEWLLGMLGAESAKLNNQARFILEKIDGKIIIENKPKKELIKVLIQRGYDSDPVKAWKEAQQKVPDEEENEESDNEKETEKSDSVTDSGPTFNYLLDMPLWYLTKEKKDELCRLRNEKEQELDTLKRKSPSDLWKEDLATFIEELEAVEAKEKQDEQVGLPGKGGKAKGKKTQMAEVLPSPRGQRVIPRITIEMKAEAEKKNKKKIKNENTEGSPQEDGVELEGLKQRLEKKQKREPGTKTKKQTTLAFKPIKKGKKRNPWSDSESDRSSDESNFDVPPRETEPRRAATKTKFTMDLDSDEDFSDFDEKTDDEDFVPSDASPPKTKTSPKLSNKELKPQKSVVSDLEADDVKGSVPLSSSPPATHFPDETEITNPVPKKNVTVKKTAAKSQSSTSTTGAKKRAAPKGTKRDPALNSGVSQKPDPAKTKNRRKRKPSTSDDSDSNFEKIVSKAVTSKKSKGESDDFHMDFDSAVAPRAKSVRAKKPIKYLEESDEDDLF
Put plainly: Topoisomerase II ATPase assay (Malachite Green). It is filed as biochemical.
Conditions: not given
The method, then: The inhibition of topoisomerase II is measured as follows:
Purified human topoisomerase II α was purchased from Professor Neil Osheroff (Vanderbilt University—Nashville, Tenn., USA).
The pUC18 (Stratagene) plasmid was introduced into Escherichia coil XL-1 (Stratagene) and purified with the HiSpeed Plasmid Purification kit (Qiagen) according to the manufacturer instructions. The purity of the DNA preparations was evaluated spectrophotometrically (OD260/OD280 ratio) and by agarose gel.
Preparation of the Malachite Green Reagent:
Three volumes of 0.045% malachite green (Sigma, catalog no. M-9636) diluted in water are mixed for 20 min at room temperature with one volume of 4.2% ammonium molybdate (Axon Lab AG, catalog no. A-2246) diluted in 4 N HCl. After mixing, Triton X-100 (Merck, catalog no. 1.12298) is added to a final concentration of 0.01%. The solution is filtered at 0.2 μm and stored at room temperature in the dark.
ATP hydrolysis was monitored by measuring the production of inorganic phosphate released during the catalytic cycle of topoisomerase II α with acidic molybdate and malachite green (Lanzetta,et al., An improved assay for nanomole amounts of inorganic phosphate, Anal Biochem 1979;100:95-7). Briefly, human topoisomerase II α is pre-incubated at 37° C. for 10 min in 90 μl reaction buffer (10 mM Tris.HCl pH 7.9, 175 mM KCl, 1 mM EDTA, 2 mM DTT, 5 mM MgCl2, 2.5% glycerol) in the presence of the indicated amount of pUC18 and DMSO in F96 maxisorp Nunclmmuno plates (Nunc). The reaction is initiated by the addition of 10 μl ATP at the indicated concentrations and is carried out for 30 min at 37° C. under constant agitation. The reaction is stopped by the addition of 200 μl molybdate/malachite green solution and the absorbance is immediately measured at 630 nm. The OD630 value is measured in the absence of protein for each ATP concentration (background) is subtracted from the value obtained in the presence of enzyme. A standard curve with inorganic phosphate is used to determine the amount of inorganic phosphate produced during the reaction and to ensure that the measures are in the linear range of the assay. The kinetic parameters of the enzymes are determined from measurements (at least in duplicate) of the initial rates at different ATP concentrations. The data are analyzed with GraFit (Erithacus Software).
The compounds are tested at 10 μM of concentration to determine their inhibition potential given % of inhibition of the TOPO II ATPase activity.
For the determination of the IC50, the procedure is repeated for different concentrations of test compound selected to cover the range of 0% to 100% inhibition and the concentration at which 50% inhibition of topoisomerase II occurs (IC50) for each compound is determined from concentration-inhibition curves in a conventional manner.
Turning to `c1nc2c(NC3CCCCCC3)nc(Nc3ccc4ncsc4c3)nc2[nH]1` [Example 1, N*2*-Benzothiazol-6-yl-N*6*-cycloheptyl-9H-purine-2,6-diamine], the IC50 (as a rule, the concentration at which inhibition is half-maximal) was determined as 8.4 µM.

In the case of `CC(C)(C)Nc1nc(Nc2ccc3ccccc3c2)nc2[nH]cnc12` [Example 15, N*6*-tert-Butyl-N*2*-naphthalen-2-yl-9H-purine-2,6-diamine], the IC50 was determined as 3.3 µM.

For `CC(C)(C)Nc1nc(Nc2ccc3cc(OCCN4CCOCC4)ccc3c2)nc2[nH]cnc12` [Example 22, N*6*-tert-Butyl-N*2*-[6-(2-morpholin-4-yl-ethoxy)-naphthalen-2-yl]-9H-purine-2,6-diamine], the half-maximal inhibitory concentration (IC50) turned out to be 1.8 µM.

Turning to `CCc1nc2c(NC(C)(C)C)nc(Nc3ccc4oc(=O)ccc4c3)nc2[nH]1` [Example 35, 6-(6-tert-Butylamino-8-ethyl-9H-purin-2-ylamino)-chromen-2-one], the 50% inhibitory concentration (IC50) came to 2.8 µM.

For `CCc1nc2c(NC(C)(C)C)nc(Nc3ccc4nc(SC)sc4c3)nc2[nH]1` [Example 36, N*6*-tert-Butyl-8-ethyl-N*2*-(2-methylsulfanyl-benzothiazol-6-yl)-9H-purine-2,6-diamine], the IC50 was found to be 0.9 µM.

Staying with this test, now noted: OD measured at 630 nm.
On to `c1nc2c(NC3CCCCCC3)nc(Nc3ccc4ncsc4c3)nc2[nH]1` [Example 1, N*2*-Benzothiazol-6-yl-N*6*-cycloheptyl-9H-purine-2,6-diamine], for which the “ATP competitive inhibitor activity” value is “ATP competitive inhibitor”.

Still in this test, the particulars now being: Percent inhibition @10 μM, Malachite Green assay; read-out: TOPO II inh. (inhibition of the TOPO ATPase activity).
On to `c1csc(-c2ccc(Nc3nc(NC4CCCCCC4)c4nc[nH]c4n3)cc2)n1` [Example 2, N*6*-Cycloheptyl-N*2*-(4-thiazol-2-yl-phenyl)-9H-purine-2,6-diamine], for which the inhibition (as a rule, the percentage by which the read-out fell short of the control) at 10 µM was less than 50%.

For `c1nc2c(NC3C4CC5CC(C4)CC3C5)nc(Nc3ccc4ncsc4c3)nc2[nH]1` (stereo not shown) [Example 5, N*6*-Adamantan-2-yl-N*2*-benzothiazol-6-yl-9H-purine-2,6-diamine], the inhibition at 10 µM fell in the range of 50 to 65%.

Turning to `c1nc2c(NC3CC4CCC3C4)nc(Nc3ccc4ncsc4c3)nc2[nH]1` (stereo not shown) [Example 6, N*2*-Benzothiazol-6-yl-N*6*-bicyclo[2.2.1]hept-2-yl-9H-purine-2,6-diamine], the inhibition at 10 µM fell in the range of 50 to 65%.

`c1nc2c(NC3CCCCCCC3)nc(Nc3ccc4ncsc4c3)nc2[nH]1` [Example 7, N*2*-Benzothiazol-6-yl-N*6*-cyclooctyl-9H-purine-2,6-diamine]: the inhibition at 10 µM lay within 50 to 65%.

Take `COc1cccc(Nc2nc(Nc3ccc4ncsc4c3)nc3[nH]cnc23)c1` [Example 8, N*2*-Benzothiazol-6-yl-N*6*-(3-methoxy-phenyl)-9H-purine-2,6-diamine]: the inhibition at 10 µM is less than 50%.

For the compound `OC1CCC(Nc2nc(Nc3ccc4ncsc4c3)nc3[nH]cnc23)CC1` (stereo not shown) [Example 9, 4-[2-(Benzothiazol-6-ylamino)-9H-purin-6-ylamino]-cyclohexanol], the inhibition at 10 µM was less than 50%.

`c1cnc2ccc(Nc3nc(Nc4ccc5ncccc5c4)c4nc[nH]c4n3)cc2c1` [Example 10, N*2*,N*6*-Di-quinolin-6-yl-9H-purine-2,6-diamine]: the inhibition at 10 µM was less than 50%.

Regarding `c1ccc(C(Nc2nc(Nc3ccc4ncsc4c3)nc3[nH]cnc23)c2ccccc2)cc1` [Example 11, N*6*-Benzhydryl-N*2*-benzothiazol-6-yl-9H-purine-2,6-diamine], the inhibition at 10 µM is less than 50%.

`c1ccc(Nc2nc(Nc3ccc4ncccc4c3)nc3[nH]cnc23)cc1` [Example 12, N*6*-Phenyl-N*2*-quinolin-6-yl-9H-purine-2,6-diamine]: the inhibition at 10 µM is 50 to 65%.

On to `c1ccc(C(Nc2nc(Nc3ccc4ncccc4c3)nc3[nH]cnc23)c2ccccc2)cc1` [Example 13, N*6*-Benzhydryl-N*2*-quinolin-6-yl-9H-purine-2,6-diamine], for which the inhibition at 10 µM is less than 50%.

Turning to `CC(C)(C)Nc1nc(Nc2ccc3ccccc3c2)nc2[nH]cnc12` [Example 15, N*6*-tert-Butyl-N*2*-naphthalen-2-yl-9H-purine-2,6-diamine], the inhibition at 10 µM was in the range of 65 to 80%.

Consider `Cc1ccc2cc(Nc3nc(NC(C)(C)C)c4nc[nH]c4n3)ccc2n1` [Example 16, N*6*-tert-Butyl-N*2*-(2-methyl-quinolin-6-yl)-9H-purine-2,6-diamine], for which the inhibition at 10 µM lay in the range of 50 to 65%.

On to `Cc1nc2cc(Nc3nc(NC(C)(C)C)c4nc[nH]c4n3)ccc2s1` [Example 17, N*6*-tert-Butyl-N*2*-(2-methyl-benzothiazol-5-yl)-9H-purine-2,6-diamine], for which the inhibition at 10 µM was less than 50%.

In the case of `CC(C)(C)Nc1nc(Nc2ccc3nc(C(C)(C)C)sc3c2)nc2[nH]cnc12` [Example 18, N*6*-tert-Butyl-N*2*-(2-tert-butyl-benzothiazol-6-yl)-9H-purine-2,6-diamine], the inhibition at 10 µM lay within 65 to 80%.

As for `Cc1nc2ccc(Nc3nc(NC(C)(C)C)c4nc[nH]c4n3)cc2s1` [Example 19, N*6*-tert-Butyl-N*2*-(2-methyl-benzothiazol-6-yl)-9H-purine-2,6-diamine], the inhibition at 10 µM was 50 to 65%.

Regarding `CC(C)(C)Nc1nc(Nc2ccc(-c3nc4ccccc4s3)cc2)nc2[nH]cnc12` [Example 20, N*2*-(4-Benzothiazol-2-yl-phenyl)-N*6*-tert-butyl-9H-purine-2,6-diamine], the inhibition at 10 µM was in the range of 65 to 80%.

In the case of `COc1ccc2cc(Nc3nc(NC(C)(C)C)c4nc[nH]c4n3)ccc2c1` [Example 21, N*6*-tert-Butyl-N*2*-(6-methoxy-naphthalen-2-yl)-9H-purine-2,6-diamine], the inhibition at 10 µM is not below 80%.

Take `CC(C)(C)Nc1nc(Nc2ccc3cc(OCCN4CCOCC4)ccc3c2)nc2[nH]cnc12` [Example 22, N*6*-tert-Butyl-N*2*-[6-(2-morpholin-4-yl-ethoxy)-naphthalen-2-yl]-9H-purine-2,6-diamine]: the inhibition at 10 µM was not below 80%.

Regarding `Cc1cc2cc(Nc3nc(NC(C)(C)C)c4nc[nH]c4n3)ccc2[nH]1` [Example 23, N*6*-tert-Butyl-N*2*-(2-methyl-1H-indol-5-yl)-9H-purine-2,6-diamine], the inhibition at 10 µM was less than 50%.

In the case of `CC(C)(C)Nc1nc(Nc2ccc3[nH]ccc3c2)nc2[nH]cnc12` [Example 24, N*6*-tert-Butyl-N*2*-(1H-indol-5-yl)-9H-purine-2,6-diamine], the inhibition at 10 µM was less than 50%.

For the compound `Cc1nc2c(NC3CCCCCC3)nc(Nc3ccc4ncsc4c3)nc2[nH]1` [Example 26, N*2*-Benzothiazol-6-yl-N*6*-cycloheptyl-8-methyl-9H-purine-2,6-diamine], the inhibition at 10 µM was less than 50%.

`CCc1nc2c(NC(C)C(F)(F)F)nc(Nc3ccc4ncsc4c3)nc2[nH]1` (stereo not shown) [Example 28, N*2*-Benzothiazol-6-yl-8-ethyl-N*6*-(2,2,2-trifluoro-1-methyl-ethyl)-9H-purine-2,6-diamine]: the inhibition at 10 µM lay in the range of 50 to 65%.

As to `CCc1nc2c(N3CCCC3C)nc(Nc3ccc4ncsc4c3)nc2[nH]1` (stereo not shown) [Example 29, Benzothiazol-6-yl-[8-ethyl-6-(2-methyl-pyrrolidin-1-yl)-9H-purin-2-yl]-amine], the inhibition at 10 µM is less than 50%.

As for `CCc1nc2c(NC(C)CC(N)=O)nc(Nc3ccc4ncsc4c3)nc2[nH]1` (stereo not shown) [Example 30, 3-[2-(Benzothiazol-6-ylamino)-8-ethyl-9H-purin-6-ylamino]-butyramide], the inhibition at 10 µM stood at 0%.

In the case of `CCOC(=O)CC(C)Nc1nc(Nc2ccc3ncsc3c2)nc2[nH]c(CC)nc12` (stereo not shown) [Example 31, 3-[2-(Benzothiazol-6-ylamino)-8-ethyl-9H-purin-6-ylamino]-butyric acid ethyl ester], the inhibition at 10 µM was less than 50%.

On to `CCCc1nc2c(NC(C)(C)C)nc(Nc3ccc4ncsc4c3)nc2[nH]1` [Example 32, N*2*-Benzothiazol-6-yl-N*6*-tert-butyl-8-propyl-9H-purine-2,6-diamine], for which the inhibition at 10 µM is less than 50%.

Regarding `CC(C)c1nc2c(NC(C)(C)C)nc(Nc3ccc4ncsc4c3)nc2[nH]1` [Example 33, N*2*-Benzothiazol-6-yl-N*6*-tert-butyl-8-isopropyl-9H-purine-2,6-diamine], the inhibition at 10 µM is less than 50%.

Turning to `CC(C)(C)Nc1nc(Nc2ccc3ncsc3c2)nc2[nH]c(C3CCCC3)nc12` [Example 34, N*2*-Benzothiazol-6-yl-N*6*-tert-butyl-8-cyclopentyl-9H-purine-2,6-diamine], the inhibition at 10 µM was less than 50%.

As to `CCc1nc2c(NC(C)(C)C)nc(Nc3ccc4oc(=O)ccc4c3)nc2[nH]1` [Example 35, 6-(6-tert-Butylamino-8-ethyl-9H-purin-2-ylamino)-chromen-2-one], the inhibition at 10 µM is 65 to 80%.

Regarding `CCc1nc2c(NC(C)(C)C)nc(Nc3ccc4nc(SC)sc4c3)nc2[nH]1` [Example 36, N*6*-tert-Butyl-8-ethyl-N*2*-(2-methylsulfanyl-benzothiazol-6-yl)-9H-purine-2,6-diamine], the inhibition at 10 µM is not below 80%.

In the case of `CCc1nc2c(NC(C)(C)C)nc(Nc3ccc4nc(OCCN5CCOCC5)sc4c3)nc2[nH]1` [Example 37, N*6*-tert-Butyl-8-ethyl-N*2*-[2-(2-morpholin-4-yl-ethoxy)-benzothiazol-6-yl]-9H-purine-2,6-diamine], the inhibition at 10 µM was not below 80%.
